{"source": "patent US11518805B2", "about": "“Binding inhibitor between TCTP dimer type IgE-dependent histamine releasing factor and receptor thereof, and use thereof” (EWHA UNIVERSITY—INDUSTRY COLLABORATION FOUNDATION, priority 2014, dated 2022)", "key": {"[1]": {"test_system": "CIA mouse model", "assay": "Treatment effect of dTBP2 in CIA mouse model", "assay_type": "in vivo, DBA1/j mice"}, "[2]": {"test_system": "HRF", "assay": "HRF binding affinity of heptamer peptides by ELISA (alanine scan of p2)", "conditions": "p2 and its substituted heptamers m1-m7", "text": "In order to confirm the residues involved in the HRF binding affinity of the heptamer peptide of the present invention, the amino acid sequence of p2 was substituted with alanine (A), and only m5 was substituted with lysine (K). As a result, the following sequences were established: […]"}, "[3]": {"test_system": "HRF", "assay": "Phage clone ELISA for binding to immobilized HRF", "method": "Particularly, HRF was dissolved in a coating buffer (0.1 M NaHCO 3, pH 8.6) at the concentration of 20 μg/ml, which was loaded in a polystyrene microtiter plate (50 ? /well), followed by coating at 4° C. for overnight and blocking non-specific binding with BSA. The plate was washed with 0.1% Tween/TBS (TBST) 6 times. […] The plate stood at room temperature for 1 hour. TBST was added thereto, and the plate stood for 5 minutes, followed by washing. The washing was performed once after one round of panning, 5 times after 2 and 3 rounds of panning, and 10 times after 4 rounds of panning. 50 ? of glycine/HCl buffer (pH 2.2) was added thereto, which stood for 5 minutes. Then, phages were eluted, and then neutralization was induced with 8 ? of 1 M Tris-HCl (pH 9.1). The eluted phage solution was added to 20 ? of ER2537 culture medium (OD600=0.5˜1), followed by culture in a 37° C. shaking incubator (rpm=200) for 2 hours. 100 ? of SB medium was added thereto, followed by culture for overnight with shaking (250 rpm). The culture solution was centrifuged at 10,000 rpm (4° C.) for 15 minutes. 100 ? of the obtained supernatant was added with 30 ? of 5×PEG/NaCl (20% PEG(w/v), 15% NaCl (w/v)), followed by dissolving for 5 minutes. The mixture was then left in ice for 30 minutes. The mixture was centrifuged at 10,000 rpm (4° C.) for 20 minutes and the supernatant was discarded. The obtained pellet was suspended in 1 ? of 3% BSA/TBS. After performing centrifugation at 14,000 rpm for 5 minutes, the supernatant was obtained and used for panning. Affinity purification and phage replication were repeated 4 times, followed by eluting phages. Each phage clone was obtained from the proper plate of the eluted phage, followed by ELISA. Those phage clones showing a specific affinity to HRF were separated, followed by sequencing to confirm the peptide sequence. Those phage display peptides showing dominant binding to HRF were selected and listed below:\nThat is, each phage plaque was added to 1 ? of the ER2537 culture medium (OD600=0.5˜1) cultured in SB medium, followed by culture in a 37° C. incubator (rpm=250) for 5 hours. 100 ? of each culture solution was added to 900 ? of SB medium, followed by culture for overnight. […]\nEach phage solution separated above was diluted in an equal volume of 6% BSA/PBS, and 50 ? of the diluted solution was added to each well of the plastic well plate coated with HRF or BSA (control), which stood for 2 hours. […] After adding peroxidase substrate solution thereto (100 ? /well), OD405 was measured with an ELISA reader.\nHRF was diluted serially by ⅕ fold each from the concentration of 20 μg/ ? […] The phage 2 solution diluted serially by ⅕ fold each (½, 1/10, 1/50, 1/250, and 1/1250 of the stock solution) was added thereto, followed by ELISA and OD405 was measured."}, "[4]": {"test_system": "atopic dermatitis mouse model", "assay": "Effect of dTBP2 in atopic dermatitis mouse model (Biostir AD)", "assay_type": "in vivo, female NC/Nga mice", "method": "Particularly, 5 week old specific pathogen free female NC/Nga mice were purchased from Orientbio Inc. (Seoul, Korea), which were adapted for 1 week. After depilating with a hair removal agent, Biostir® AD ointment (Biostir, Japan) was used to induce atopic dermatitis on the dorsal skin. That is, hair was removed from the back of the mouse, on which 150 μl of 4% SDS dissolved in PBS was applied. After 2-3 hours of natural dry, 100 mg of Biostir® AD cream was evenly applied on the back skin and the ear skin of the mouse. The cream was applied twice a week, 6 times total for 3 weeks. It was confirmed that the skin layer of the mouse became thick and keratin was formed on the back skin.\nTo investigate the effect of dTBP2 on atopic dermatitis in the atopic dermatitis-induced mouse, the positive control was administered with PBS, the comparative experimental group was administered with protopic ointment (Astellas Pharma Manufacturing Inc., USA), and the experimental group was treated with dTPB2. On day 0, PBS (subcutaneous injection, 25 mg/kg), protopic ointment (skin application, 100 mg/mouse) and dTBP2 (subcutaneous injection, 25 mg/kg) were respectively applied. On day 1, 100 mg of Biostir® AD cream was applied thereto. On day 2 and day 3, PBS, protopic ointment, and dTBP2 were treated thereto by the same manner as performed on day 0. On day 4, 100 mg of Biostir® AD cream was applied thereto. On day 5, PBS, protopic ointment, and dTBP2 were treated thereto by the same manner as performed on day 0.\nAtopic symptoms were observed and presented as points according to the atopic index such as erythema, drying, excoriation, edema, and erosion, based on which a graph was made (FIG. 32b, 0: no symptoms, 1: weak symptoms, 2: median symptoms, 3: severe symptoms). It was confirmed on the graph that atopy was minor in the group treated with protopic ointment and dTBP2, compared with the control.\nOnce atopic allergy is induced, the stratum corneum and skin layer become thick and the infiltration of inflammatory cells is increased. For the histological evaluation, hematoxylin/eosin staining and toluidine blue staining were performed. The thickness of the skin and the infiltration of immune related inflammatory cells were observed under microscope. As a result, the atopic symptoms including the thick stratum corneum were improved in the groups treated with protopic ointment and dTBP2, compared with the control group treated with PBS alone (FIGS. 34a and 34b).\nLymph node assay examining the effect of an antigen or a drug by observing the changes of lymph node weight was performed to investigate inflammatory reaction induced by skin sensitizing materials."}, "[5]": {"test_system": "CIA (collagen-induced arthritis) mouse model", "assay": "Preventive effect of dTBP2 in CIA (collagen-induced arthritis) mouse model", "assay_type": "in vivo, male DBA1/j mice", "conditions": "for joint thickness: preventive"}, "[6]": {"conditions": "dTBP2 25 mg/kg s.c., protopic ointment 100 mg/mouse, vs PBS"}}}
{"substance": "WYVYPSM (IgE-dependent histamine-releasing factor binding peptide2) [dTBP2, ID; NO: 24]", "values": [{"measurement": "joint thickness", "setting": "[1]; 5 mg of dTBP2 from day 41", "result": "continuously increased"}, {"measurement": "joint thickness", "setting": "[1]; 25 mg of dTBP2 from day 41", "result": "reduced"}, {"measurement": "arthritis clinical score", "setting": "[1]; 25 mg of dTBP2 from day 41, vs vehicle alone or 5 mg", "result": "getting lower"}, {"measurement": "HRF binding affinity (rank order)", "setting": "[2]", "result": "p2, m6>m7>m3>m2>fm5>M1>m4"}, {"measurement": "binding force to serially diluted HRF (ELISA, OD405)", "setting": "[3]; HRF diluted until 0.4, 0.08, 0.016, and 0.032 μg/ml, phage solution serially diluted", "result": "maintained its binding force to HRF"}, {"measurement": "binding of phage clone to HRF (ELISA, OD405)", "setting": "[3]; wells coated with HRF or BSA (control)", "result": "specifically bind to HRF"}, {"measurement": "IL-4 mRNA level", "setting": "[4]; [6]", "result": "significantly decreased"}, {"measurement": "IL-13 mRNA level", "setting": "[4]; [6]", "result": "significantly decreased"}, {"measurement": "atopic symptoms including thick stratum corneum (H&E, skin thickness)", "setting": "[4]; [6]", "result": "improved"}, {"measurement": "histamine level", "setting": "[4]; [6]", "result": "lower"}, {"measurement": "level of Th17A", "setting": "[4]; [6]", "result": "lowered"}, {"measurement": "lymph node weight and size (lymph node assay)", "setting": "[4]; [6]", "result": "smaller in both weight and size than that of the PBS treated group"}, {"measurement": "infiltration of mast cells (toluidine blue)", "setting": "[4]; dTBP2 25 mg/kg s.c., protopic ointment 100 mg/mouse, vs positive control", "result": "significantly reduced"}, {"measurement": "atopic symptoms as points (atopic index: erythema, drying, excoriation, edema, erosion)", "setting": "[4]; dTBP2 subcutaneous 25 mg/kg, protopic ointment 100 mg/mouse, vs control", "result": "minor"}, {"measurement": "degree of atopy, visually confirmed", "setting": "[4]; dTBP2 subcutaneous 25 mg/kg, protopic ointment skin application 100 mg/mouse, vs control", "result": "lesser degree of atopy than the control group"}, {"measurement": "joint thickness", "setting": "[5]; 5 mg of dTBP2", "result": "continuously increased until day 41 and rapidly increased from day 41 to day 46"}, {"measurement": "development of rheumatoid arthritis", "setting": "[5]; 25 mg of dTBP2, three times a week, vs vehicle alone or 5 mg", "result": "inhibited more significantly"}, {"measurement": "joint thickness", "setting": "[5]; 25 mg of dTBP2", "result": "almost as same as that of the normal until day 46"}, {"measurement": "inhibition of incidence rate", "setting": "[5]; day 31, 25 mg of dTBP2, vs vehicle alone or 5 mg", "result": "at least 50%"}, {"measurement": "inhibition of incidence rate", "setting": "[5]; day 46, 25 mg of dTBP2, vs vehicle alone or 5 mg", "result": "at least 70%"}]}
